For data set [1] the following is noted: rats; cited from earlier work.
The conditions of data set [2]: humans; cited from earlier work.
For data set [3] the following is noted: monkey, IV; cited from earlier work.
The target in data set [4] is T1, cytochrome P450 (CYP) 3A4 (Homo sapiens, UniProt P08684).
T1 construct: from tissue; host or cells: human liver microsomes
The conditions noted are these: human liver microsomes; cited from earlier work.

For data set [5] the following is noted: intravenously, cited from earlier work.
The test system of data set [6] is SARS-CoV-2. The data set can be described thus: microbe, parasite or virus in culture. The conditions noted are these: for pEC50: Severe acute respiratory syndrome coronavirus 2, HeLa-ACE2, 24 h; for EC50: Severe acute respiratory syndrome coronavirus 2, HeLa-ACE2, CoV-2/HeLa-ACE2 assay, unit uM.
For data set [7] the following is noted: i.v., 28 day, dosed daily; cited from earlier work.
Data set [8] deals with SARS-CoV-2. The settings on record: for Hill coefficient (Nh): slope of the dose response curve.
The next data set relates to Vero E6 cells. The conditions noted are these: cited from earlier work.
The nature of data set [9]: Uninfected host cell cytotoxicity counter screen. Type of data set: cell-based, human. The conditions noted are these: human, uninfected HeLa-ACE2 cells; uninfected HeLa-ACE2, 24 h. The protocol: (§1) Compounds were acoustically transferred into 1,536-well clear plates (Greiner Part. No. 789091). HeLa-ACE2 cells were maintained as described for the infection assay and seeded in the assay-ready plates at 400 cells/well in DMEM with 2% FBS and plates were incubated for 24 hours at 37 5% CO2. To assess cell viability, the Image-iT DEAD green reagent (Thermo Fisher) was used according to manufacturer instructions. Cells were fixed with 4% paraformaldehyde, and counterstained with DAPI. Fixed cells were imaged using the ImageXpress Micro Confocal High-Content Imaging System (Molecular Devices) with a 10× objective, and total live cells per well quantified in the acquired images using the Live Dead Application Module (MetaXpress).
(§2) Image analysis was carried out with MetaXpress (version 6.5.4.532). Primary in vitro screen and the host cell cytotoxicity counter screen data were uploaded to Genedata Screener, Version 16.0.3-Standard. Data were normalized to neutral (DMSO) […] inhibitor controls (2.5 μM remdesivir for antiviral effect and 10 μM puromycin for infected host cell toxicity). For the uninfected host cell cytotoxicity counter screen 40 μM puromycin (Sigma) was used as the positive control. For dose response experiments compounds were tested in technical triplicates on different assay plates and dose curves were fitted with the four parameter Hill Equation. Technical replicate data were analyzed using median condensing.

The conditions of data set [10]: dog, IV; cited from earlier work.
The conditions of data set [11]: 30 mg/kg and 60 mg/kg oral gavage; cited from earlier work.
The subject of data set [12] is SARS-CoV-2. The conditions noted are these: cited from earlier work.
The subject of data set [13] is SARS-CoV-2. The conditions noted are these: read-out: CPE EC50; cited from earlier work.
For data set [14] the following is noted: mouse, IV; cited from earlier work.
The conditions of data set [15]: in vivo, cited from earlier work.
A further data set has as its system MKN45 cells. The settings on record: cited from earlier work.
The next data set relates to Scaber cells. The settings on record: cited from earlier work.
A further data set has as its system HCT116 cells. The conditions noted are these: cited from earlier work.
Another data set concerns SIHA cells. The settings on record: cited from earlier work.
The test system of a further data set is MCF-7 cells. The conditions noted are these: cited from earlier work.
The next data set relates to COLO205 cells. The settings on record: cited from earlier work.
Data set [16] deals with GABAA receptor α1 subunits (Homo sapiens, UniProt P14867). The settings on record: cited from earlier work.
GABAA receptor α1 subunits, sequence (P14867 28-456): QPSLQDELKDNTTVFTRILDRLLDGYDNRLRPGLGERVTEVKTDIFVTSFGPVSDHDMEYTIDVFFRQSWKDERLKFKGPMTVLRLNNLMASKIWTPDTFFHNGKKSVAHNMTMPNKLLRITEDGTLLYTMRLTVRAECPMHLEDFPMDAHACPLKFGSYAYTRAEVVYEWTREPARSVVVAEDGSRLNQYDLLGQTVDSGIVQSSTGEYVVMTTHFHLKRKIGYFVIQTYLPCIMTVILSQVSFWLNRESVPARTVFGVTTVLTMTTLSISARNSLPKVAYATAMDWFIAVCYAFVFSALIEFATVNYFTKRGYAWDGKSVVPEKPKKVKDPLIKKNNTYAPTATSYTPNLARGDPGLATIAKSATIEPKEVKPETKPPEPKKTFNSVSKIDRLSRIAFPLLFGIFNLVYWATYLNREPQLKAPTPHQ
GABAA receptor α1 subunits, sequence (P47870 25-512 partner limits assumed): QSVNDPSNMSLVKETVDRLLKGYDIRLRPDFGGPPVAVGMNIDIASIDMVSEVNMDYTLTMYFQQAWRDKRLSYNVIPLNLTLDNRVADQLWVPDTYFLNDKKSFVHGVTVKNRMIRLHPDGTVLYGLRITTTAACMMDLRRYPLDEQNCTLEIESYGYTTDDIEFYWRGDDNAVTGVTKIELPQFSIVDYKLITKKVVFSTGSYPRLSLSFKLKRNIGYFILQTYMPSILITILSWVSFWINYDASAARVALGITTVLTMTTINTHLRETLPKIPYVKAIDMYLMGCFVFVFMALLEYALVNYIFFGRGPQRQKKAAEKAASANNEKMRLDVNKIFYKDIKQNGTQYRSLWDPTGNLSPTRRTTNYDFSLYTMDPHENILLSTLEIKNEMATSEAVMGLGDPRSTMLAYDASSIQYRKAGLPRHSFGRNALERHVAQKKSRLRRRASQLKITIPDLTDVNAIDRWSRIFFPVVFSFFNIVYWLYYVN
GABAA receptor α1 subunits, sequence (P18507 40-467 partner limits assumed): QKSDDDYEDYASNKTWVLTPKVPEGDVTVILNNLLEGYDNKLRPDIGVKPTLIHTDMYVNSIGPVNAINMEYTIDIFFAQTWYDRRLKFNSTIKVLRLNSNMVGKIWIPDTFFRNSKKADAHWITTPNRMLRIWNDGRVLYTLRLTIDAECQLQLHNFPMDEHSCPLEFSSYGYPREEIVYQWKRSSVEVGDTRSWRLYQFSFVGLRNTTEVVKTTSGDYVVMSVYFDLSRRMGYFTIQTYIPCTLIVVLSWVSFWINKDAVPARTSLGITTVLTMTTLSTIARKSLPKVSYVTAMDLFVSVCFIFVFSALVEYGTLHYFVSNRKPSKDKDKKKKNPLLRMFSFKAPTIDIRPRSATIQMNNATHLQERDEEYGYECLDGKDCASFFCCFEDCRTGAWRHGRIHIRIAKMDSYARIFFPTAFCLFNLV
In another data set the test system is MO-91. The conditions noted are these: cited from earlier work.
A further data set concerns CUTO-3.29. The settings on record: cited from earlier work.
The subject of data set [17] is tropomyosin-related kinases TrkA, TrkB, and TrkC. The settings on record: cited from earlier work.
A further data set relates to KM12. The conditions noted are these: cited from earlier work.
Data set [18] relates to adhesion of HuT 78 cells to ICAM-1. The settings on record: cited from earlier work.
Data set [19] has as its target T2, LFA-1 interaction with ICAM-1 (Homo sapiens, UniProt P05107+P20701).
T2 construct: endogenous in cells; host or cells: Jurkat T cells
The settings on record: Jurkat T cells; cited from earlier work.

For a further data set, the system named is HIV-1. The conditions noted are these: cited from earlier work.
The subject of a further data set is CEM cancer cells. The settings on record: cited from earlier work.
The test system of a further data set is L1210 cancer cells. The conditions noted are these: cited from earlier work.
In a further data set the test system is MP-2 cancer cells. The conditions noted are these: cited from earlier work.
The next data set relates to BxPC-3 cancer cells. The conditions noted are these: cited from earlier work.
The next data set addresses adenosine A2 receptors. The conditions noted are these: cited from earlier work.
For data set [20] the following is noted: mice; cited from earlier work.
Data set [21] deals with HeLa-ACE2 cells. The data set can be described thus: Uninfected host cell cytotoxicity counter screen. The data set is classed as cell-based, human. The conditions noted are these: uninfected HeLa-ACE2, 24 h. The method, then:
as §1, §2

For data set [22] the following is noted: humans; cited from earlier work. The source holds these as a separate data set.
Data set [23] deals with HeLa-ACE2 cells. The conditions noted are these: Bakowski et al, 2020; cited from earlier work.
The subject of data set [24] is SARS-CoV-2. The settings on record: cited from earlier work. This is another data set of the same source.
The target of data set [25] is pig striatum A2A receptor (Sus scrofa, UniProt K9IW67). The conditions noted are these: cited from earlier work.
pig striatum A2A receptor, sequence (K9IW67 entry or part of it): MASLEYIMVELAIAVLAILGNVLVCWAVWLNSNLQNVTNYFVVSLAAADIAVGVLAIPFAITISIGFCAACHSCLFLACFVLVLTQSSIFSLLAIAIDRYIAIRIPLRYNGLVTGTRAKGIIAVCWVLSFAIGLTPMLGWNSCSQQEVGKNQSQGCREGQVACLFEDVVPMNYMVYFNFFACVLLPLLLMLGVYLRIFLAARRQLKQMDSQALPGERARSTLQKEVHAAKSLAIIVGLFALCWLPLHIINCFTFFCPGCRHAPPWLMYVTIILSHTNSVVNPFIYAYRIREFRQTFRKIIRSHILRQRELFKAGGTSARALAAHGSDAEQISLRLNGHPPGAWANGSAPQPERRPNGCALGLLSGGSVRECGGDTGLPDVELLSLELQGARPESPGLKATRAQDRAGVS
For data set [26] the following is noted: pig, in vivo; cited from earlier work.

pEC50, pIC50, pKi: −log10 of the molar value. Read-outs that look alike come from different tables or passages of the source. Where only a bound is given, the exact number is not on record here.

T1 sequence (P08684 whole entry): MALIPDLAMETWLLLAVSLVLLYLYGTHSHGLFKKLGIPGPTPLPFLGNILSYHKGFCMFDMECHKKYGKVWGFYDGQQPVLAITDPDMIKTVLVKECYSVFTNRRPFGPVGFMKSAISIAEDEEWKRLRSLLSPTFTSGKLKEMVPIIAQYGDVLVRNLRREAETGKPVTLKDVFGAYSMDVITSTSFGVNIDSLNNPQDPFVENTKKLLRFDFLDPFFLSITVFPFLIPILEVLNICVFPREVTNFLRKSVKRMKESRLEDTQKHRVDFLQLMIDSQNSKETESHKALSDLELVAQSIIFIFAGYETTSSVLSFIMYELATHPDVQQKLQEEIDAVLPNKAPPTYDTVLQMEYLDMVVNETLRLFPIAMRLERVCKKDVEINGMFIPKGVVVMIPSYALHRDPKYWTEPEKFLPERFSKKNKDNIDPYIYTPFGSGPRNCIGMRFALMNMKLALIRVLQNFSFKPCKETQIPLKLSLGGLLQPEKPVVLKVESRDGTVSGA
T2 sequence (P20701 26-1170): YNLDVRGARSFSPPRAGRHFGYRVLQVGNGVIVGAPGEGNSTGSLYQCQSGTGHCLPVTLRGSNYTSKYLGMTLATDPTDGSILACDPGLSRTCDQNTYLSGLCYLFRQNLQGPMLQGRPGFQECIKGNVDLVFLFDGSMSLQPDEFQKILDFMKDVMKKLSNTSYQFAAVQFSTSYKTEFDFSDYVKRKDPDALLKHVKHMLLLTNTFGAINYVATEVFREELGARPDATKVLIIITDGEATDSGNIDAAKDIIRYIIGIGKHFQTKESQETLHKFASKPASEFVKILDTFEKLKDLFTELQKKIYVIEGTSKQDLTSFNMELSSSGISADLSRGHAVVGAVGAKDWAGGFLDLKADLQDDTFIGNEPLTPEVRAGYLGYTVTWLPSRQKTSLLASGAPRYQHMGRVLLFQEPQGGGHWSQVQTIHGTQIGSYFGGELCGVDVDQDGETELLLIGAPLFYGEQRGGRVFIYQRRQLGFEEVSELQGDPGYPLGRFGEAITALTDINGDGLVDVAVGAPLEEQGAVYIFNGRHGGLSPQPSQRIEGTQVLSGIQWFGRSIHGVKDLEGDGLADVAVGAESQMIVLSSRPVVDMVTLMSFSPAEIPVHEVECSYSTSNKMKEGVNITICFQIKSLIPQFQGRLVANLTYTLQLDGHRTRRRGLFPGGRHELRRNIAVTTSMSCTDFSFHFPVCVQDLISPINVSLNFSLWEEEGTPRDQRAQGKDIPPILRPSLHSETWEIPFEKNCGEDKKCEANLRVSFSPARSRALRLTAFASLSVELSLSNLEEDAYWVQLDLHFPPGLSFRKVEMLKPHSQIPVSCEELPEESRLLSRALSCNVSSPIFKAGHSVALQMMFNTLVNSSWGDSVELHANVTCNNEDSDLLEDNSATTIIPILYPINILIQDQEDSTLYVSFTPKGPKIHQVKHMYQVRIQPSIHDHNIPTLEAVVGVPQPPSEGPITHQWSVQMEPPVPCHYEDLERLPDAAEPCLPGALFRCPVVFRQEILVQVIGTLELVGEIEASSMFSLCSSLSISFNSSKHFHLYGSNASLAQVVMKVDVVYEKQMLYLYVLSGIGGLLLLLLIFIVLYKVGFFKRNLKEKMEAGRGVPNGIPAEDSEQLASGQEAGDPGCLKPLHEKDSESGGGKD
T2 sequence (P05107 23-769): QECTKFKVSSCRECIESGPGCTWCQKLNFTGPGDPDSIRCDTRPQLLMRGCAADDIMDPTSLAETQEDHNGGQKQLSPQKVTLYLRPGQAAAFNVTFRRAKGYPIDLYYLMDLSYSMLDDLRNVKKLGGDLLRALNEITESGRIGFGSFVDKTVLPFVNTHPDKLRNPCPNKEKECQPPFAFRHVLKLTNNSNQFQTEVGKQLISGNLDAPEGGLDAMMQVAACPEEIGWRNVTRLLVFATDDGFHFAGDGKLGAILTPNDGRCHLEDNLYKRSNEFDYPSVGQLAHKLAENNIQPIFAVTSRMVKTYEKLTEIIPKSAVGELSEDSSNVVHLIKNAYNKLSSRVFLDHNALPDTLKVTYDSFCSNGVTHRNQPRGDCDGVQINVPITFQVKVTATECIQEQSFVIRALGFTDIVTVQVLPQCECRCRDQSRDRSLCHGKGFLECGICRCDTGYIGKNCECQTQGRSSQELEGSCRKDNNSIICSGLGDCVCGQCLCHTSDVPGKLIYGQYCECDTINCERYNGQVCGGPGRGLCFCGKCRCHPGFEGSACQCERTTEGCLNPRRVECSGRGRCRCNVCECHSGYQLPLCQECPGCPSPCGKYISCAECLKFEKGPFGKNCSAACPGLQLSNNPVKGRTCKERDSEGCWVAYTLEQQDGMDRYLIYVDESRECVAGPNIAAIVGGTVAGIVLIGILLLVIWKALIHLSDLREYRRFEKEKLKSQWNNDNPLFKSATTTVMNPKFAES

For `Cc1c(-c2ccc(O)cc2)n(Cc2ccc(OCCN3CCCCCC3)cc2)c2ccc(O)cc12` [Bazedoxifene], the safely tolerated dose is 100 mg/kg/day in data set [1] and 20 mg/day in data set [2].
For `CNCc1ccc(-c2cc(-c3nc(-c4ccc(S(=O)(=O)C(C)C)cc4)cnc3N)on2)cc1` [Berzosertib], the “systemic clearance (CL)” value in data set [3] is 29 mL/min/kg; in data set [10], 13 mL/min/kg; in [14] it was 82 mL/min/kg. Also, the “enzyme mainly metabolizing the drug” value in [4] was “cytochrome P450 (CYP) 3A4”. In addition, the “safe and well tolerated clinical dose, no DLTs observed” value was 480 mg/m2 in [5] (once-weekly) and 240 mg/m2 in data set [5] (twice weekly). Besides, the pEC50 in the data set on SARS-CoV-2 [6] was 6.94; in the data set on SARS-CoV-2 [13], 6.15. Besides, in the data set on SARS-CoV-2 [6], the midpoint of the response, the EC50, lay at 0.114 µM. Besides, the STD10 in [7] is 30 mg/kg/day. Besides, the “activity in the HeLa-ACE2 cell-based SARS-CoV-2 assay (in words)” value with SARS-CoV-2 [8] was “demonstrated activity”. In addition, the “Hill coefficient (Nh)” value in the data set with SARS-CoV-2 [8] was 1.485. In addition, the 50% cytotoxic concentration (CC50) in the data set on Vero E6 cells is 11.2 µM. In data set [9], this molecule gave a CC50 at 24 h of 3.14 µM. Moreover, the “tolerability (in words)” value in data set [11] is “no adverse effects or toxicity”. Further, the pIC50 with SARS-CoV-2 [12] was above 7.60. In addition, in data set [15], the “half-life (t 1/2)” value is reported as “about 17 hours”.
In the case of `CCCCCOC(=O)Nc1nc(=O)n([C@@H]2O[C@H](C)[C@@H](O)[C@H]2O)cc1F` [Capecitabine, 5′-deoxy-5-fluoro-N-[(pentyloxy)carbonyl]-cytidine], the pIC50 was 3.00 in the data set on MKN45 cells; 4.01 with Scaber cells; below 3.00 with HCT116 cells; 3.24 in the data set with SIHA cells; below 3.00 with MCF-7 cells; below 3.00 in the data set on COLO205 cells.
Take `CC(=O)N(C)c1cccc(-c2ccnc3c(C(=O)c4cccs4)cnn23)c1` [Indiplon, N-methyl-N-[3-[3-(2-thienylcarbonyl)pyrazolo[1,5-a]pyrimidin-7-yl]phenyl]-acetamide]: the pEC50 in data set [16] is 8.59.
Regarding `O=C(Nc1cnn2ccc(N3CCC[C@@H]3c3cc(F)ccc3F)nc12)N1CC[C@H](O)C1` [LOXO-101, (3S)—N-[5-[(2R)-2-(2,5-difluorophenyl)-1-pyrrolidinyl]pyrazolo[1,5-a]pyrimidin-3-yl]-3-hydroxy-1-pyrrolidinecarboxamide], the pIC50 with MO-91 was above 8.00; in the data set with CUTO-3.29, above 7.00; in data set [17], 7.70 to 8.70; with KM12 it was above 8.00.
Turning to `CS(=O)(=O)c1cccc(C[C@H](NC(=O)c2c(Cl)cc3c(c2Cl)CCN(C(=O)c2ccc4ccoc4c2)C3)C(=O)O)c1` [Lifitegrast, N-[[2-(6-benzofuranylcarbonyl)-5,7-dichloro-1,2,3,4-tetrahydro-6-isoquinolinyl]carbonyl]-3-(methylsulfonyl)-L-phenylalanine], the pIC50 is 8.05 in [18] and 8.53 in data set [19].
Consider `Cc1cccc(C)c1OCC(=O)N[C@@H](Cc1ccccc1)[C@@H](O)C[C@H](Cc1ccccc1)NC(=O)[C@H](C(C)C)N1CCCNC1=O` [Lopinavir, N-[(1S,3S,4S)-4-[[2-(2,6-dimethylphenoxy)acetyl]amino]-3-hydroxy-5-phenyl-1-(phenylmethyl)pentyl]tetrahydro-aS-(1-methylethyl)-2-oxo-1(2H)-pyrimidineacetamide], for which the pEC50 with HIV-1 is 7.28 to 8.30.
Regarding `C[C@H](NP(=O)(OC[C@H]1O[C@@H](n2ccc(N)nc2=O)C(F)(F)[C@@H]1O)Oc1ccccc1)C(=O)OCc1ccccc1` (stereo partly drawn) [NUC-1031, N-(2′-deoxy-2′,2′-difluoro-P-phenyl-5′-cytidylyl)-L-alanine, phenylmethyl ester], the pIC50 in the data set with CEM cancer cells is 7.52; with L1210 cancer cells it was 7.46; with MP-2 cancer cells it was 7.22; in the data set on BxPC-3 cancer cells, 7.40.
As for `CNC(=O)[C@H]1O[C@@H](n2cnc3c(NCc4cccc(I)c4)ncnc32)[C@H](O)[C@@H]1O` [Piclidenoson, 1-deoxy-1-[6-[[(3-iodophenyl)methyl]amino]-9H-purin-9-yl]-N-methyl-β-D-ribofuranuronamide], the pKi at adenosine A2 receptors is 5.51.
With `Cc1c(-c2ccc(O)cc2)n(Cc2ccc(OCCN3CCCCC3)cc2)c2ccc(O)cc12` [Pipendoxifene], the safely tolerated dose entry is given as “at least 20 mg/kg/day” in [20] and “up to 200 mg/daily” in data set [22]. In addition, the negative logarithm of the EC50 (pEC50) in the data set with SARS-CoV-2 [6] was 5.08. The EC50 with SARS-CoV-2 [6] was 8.24 µM; in the data set on SARS-CoV-2 [8] (CoV-2/HeLa-ACE2 assay, unit uM) it was 8.42 µM. Moreover, the concentration for an effect of 90% (EC90) in the data set on SARS-CoV-2 [6] (Severe acute respiratory syndrome coronavirus 2, HeLa-ACE2, read-out: EC90 (Hill equation, Equation I)) was 15 µM; in the data set on SARS-CoV-2 [6] (Severe acute respiratory syndrome coronavirus 2, HeLa-ACE2, read-out: EC90 range from both equations), 14.3 to 15 µM; in the data set on SARS-CoV-2 [8], 14.3 µM. For the same molecule, the “activity in the HeLa-ACE2 cell-based SARS-CoV-2 assay (in words)” value with SARS-CoV-2 [8] is on record as “demonstrated activity”. In the data set with SARS-CoV-2 [8] (derived from the graph), this molecule had an EC10 of 5.012 µM. Besides, the “Hill coefficient (Nh)” value in the data set with SARS-CoV-2 [8] stood at 4. In the data set on HeLa-ACE2 cells [21], this molecule yielded a CC50 above 39.8 µM. In data set [15] (hamster), the “half-life (t ½)” value was 30 h. The “half-life (t 1/2)” value in data set [15] is 15.8 to 27.3 h.
In the case of `Nc1nc(Nc2ccc3c(c2)CC[C@@H](N2CCCC2)CC3)nn1-c1cc2c(nn1)-c1ccccc1CCC2` [R-428], the cytotoxic concentration (CC50) with HeLa-ACE2 cells [23] is above 40 µM. Also, the “synergy score with remdesivir against SARS-CoV-2” value in the data set with SARS-CoV-2 [24] (Bakowski et al, 2020) is on record as 7.22. In addition, the pEC50 in the data set on SARS-CoV-2 [24] (ReFRAME screen, same methods (Bakowski et al, 2020)) was 5.54.
Regarding `CNC(=O)c1cnn(-c2nc(N)c3ncn([C@@H]4O[C@H](CO)[C@@H](O)[C@H]4O)c3n2)c1` [Regadenoson, 2-[4-[(methylamino)carbonyl]-1H-pyrazol-1-yl]-adenosine], the pKi in data set [25] is 8.96. For the same molecule, in [26], the half-time to reversal was 1.9 to 2.6 min and the “increase of coronary blood flow” value is recorded as 3.4- to 3.8 fold.

These data come from patent US12551475B2, “Methods and compositions for treating RNA viral infections” (Model Medicines, Inc., priority 2020, dated 2026).
